molecular target: Metabotropic glutamate receptor 2 (Homo sapiens) (UniProt Q14416); assay: Binding potency against Metabotropic glutamate receptor 2 was determined by measuring the concentration required to activate 50% of [35S]GTP-gamma-S, in presence of 10 uM glutamate; type: functional
Sequence (Q14416 19-872 limits assumed): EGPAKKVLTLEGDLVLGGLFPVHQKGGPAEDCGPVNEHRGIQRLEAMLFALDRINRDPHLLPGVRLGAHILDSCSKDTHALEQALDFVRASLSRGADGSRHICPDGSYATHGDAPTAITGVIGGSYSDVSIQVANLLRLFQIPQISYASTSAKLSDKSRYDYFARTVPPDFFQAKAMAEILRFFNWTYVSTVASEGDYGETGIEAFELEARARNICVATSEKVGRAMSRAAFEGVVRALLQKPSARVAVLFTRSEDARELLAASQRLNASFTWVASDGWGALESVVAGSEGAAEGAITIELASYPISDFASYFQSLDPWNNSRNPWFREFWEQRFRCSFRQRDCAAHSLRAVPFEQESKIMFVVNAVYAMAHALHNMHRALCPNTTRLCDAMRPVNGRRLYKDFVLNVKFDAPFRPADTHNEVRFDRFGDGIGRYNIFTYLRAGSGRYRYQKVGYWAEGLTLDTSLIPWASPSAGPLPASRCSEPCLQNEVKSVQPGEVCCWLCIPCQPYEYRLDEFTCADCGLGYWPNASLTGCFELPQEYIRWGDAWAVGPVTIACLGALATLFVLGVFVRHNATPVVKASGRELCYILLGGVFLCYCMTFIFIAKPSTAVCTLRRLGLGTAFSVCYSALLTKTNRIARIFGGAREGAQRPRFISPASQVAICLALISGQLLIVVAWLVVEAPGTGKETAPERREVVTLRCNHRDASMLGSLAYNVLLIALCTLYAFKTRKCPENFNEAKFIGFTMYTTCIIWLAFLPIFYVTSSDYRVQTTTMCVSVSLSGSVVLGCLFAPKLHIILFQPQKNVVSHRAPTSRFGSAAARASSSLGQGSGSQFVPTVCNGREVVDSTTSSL

ED50 | SMILES
5200 nM | FC(F)(F)Oc1cccc(NCc2cnc3ccccc3c2)c1
1200 nM | O=S(=O)(CC(F)(F)F)N(Cc1cncnc1)c1cccc(COc2ccccc2)c1
660 nM | O=S(=O)(CC(F)(F)F)N(Cc1cncnc1)c1cccc(Oc2ccccc2)c1
1100 nM | O=S(=O)(CC(F)(F)F)N(Cc1cncnc1)c1cccc(Oc2ccccc2Br)c1
350 nM | CCCC(C)Oc1cccc(N(Cc2cncnc2)S(=O)(=O)CC(F)(F)F)c1 (stereo unspecified)
1700 nM | COc1ccccc1Oc1ccc(N(Cc2cccnc2)S(=O)(=O)CC(F)(F)F)cc1
1000 nM | FC(F)(F)c1ccccc1Cc1cccc(NCc2cnc3ccccc3c2)c1
710 nM | c1ccc(Cc2cccc(NCc3cncnc3)c2)cc1
560 nM | O=S(=O)(CC(F)(F)F)N(Cc1cncnc1)c1ccc(Oc2ccccc2)cc1
860 nM | O=S(=O)(CC(F)(F)F)N(Cc1cncnc1)c1cccc(Oc2ccccc2F)c1
660 nM | CC(C)(C)[Si](C)(C)OCc1cccc(N(Cc2cncnc2)S(=O)(=O)CC(F)(F)F)c1
760 nM | COc1ccccc1Oc1cccc(N(Cc2cncnc2)S(=O)(=O)CC(F)(F)F)c1

Further lines, the compound ahead of its results:

SMILES | ED50
c1ccc(NCc2cncnc2)cc1 | 9600 nM
O=S(=O)(CC(F)(F)F)N(Cc1cncnc1)c1cccc(Cc2ccccc2)c1 | 540 nM
CCCC(C)Oc1cccc(NCc2cnc3ccccc3c2)c1 (stereo unspecified) | 4300 nM
O=S(=O)(CC(F)(F)F)N(Cc1cncnc1)c1cccc(OC2CCCC2)c1 | 840 nM
O=S(=O)(CC(F)(F)F)N(Cc1cncnc1)c1cccc(Oc2ccccc2C(F)(F)F)c1 | 970 nM
Cc1ccccc1Oc1cccc(N(Cc2cncnc2)S(=O)(=O)CC(F)(F)F)c1 | 630 nM
O=C(OCc1cccc(N(Cc2cncnc2)S(=O)(=O)CC(F)(F)F)c1)c1ccccc1 | 810 nM
FC(F)(F)Oc1cccc(NCc2cncnc2)c1 | 19000 nM

molecular target: Metabotropic glutamate receptor 2 (Homo sapiens) (UniProt Q14416); assay: Level of potentiation of Metabotropic glutamate receptor 2 was determined by measuring the percentage activation of [35S]GTP-gamma-S, in the presence of 10 uM glutamate; type: functional

Potentiation | SMILES
40% | FC(F)(F)Oc1cccc(NCc2cnc3ccccc3c2)c1
51% | O=S(=O)(CC(F)(F)F)N(Cc1cncnc1)c1cccc(COc2ccccc2)c1
52% | O=S(=O)(CC(F)(F)F)N(Cc1cncnc1)c1cccc(Oc2ccccc2)c1
40% | O=S(=O)(CC(F)(F)F)N(Cc1cncnc1)c1cccc(Oc2ccccc2Br)c1
31% | CCCC(C)Oc1cccc(N(Cc2cncnc2)S(=O)(=O)CC(F)(F)F)c1 (stereo unspecified)
52% | COc1ccccc1Oc1ccc(N(Cc2cccnc2)S(=O)(=O)CC(F)(F)F)cc1
18% | FC(F)(F)c1ccccc1Cc1cccc(NCc2cnc3ccccc3c2)c1
31% | c1ccc(Cc2cccc(NCc3cncnc3)c2)cc1
37% | O=S(=O)(CC(F)(F)F)N(Cc1cncnc1)c1ccc(Oc2ccccc2)cc1
46% | O=S(=O)(CC(F)(F)F)N(Cc1cncnc1)c1cccc(Oc2ccccc2F)c1
48% | CC(C)(C)[Si](C)(C)OCc1cccc(N(Cc2cncnc2)S(=O)(=O)CC(F)(F)F)c1
62% | COc1ccccc1Oc1cccc(N(Cc2cncnc2)S(=O)(=O)CC(F)(F)F)c1

Further lines, the compound ahead of its results:

SMILES | Potentiation
c1ccc(NCc2cncnc2)cc1 | 68%
O=S(=O)(CC(F)(F)F)N(Cc1cncnc1)c1cccc(Cc2ccccc2)c1 | 43%
CCCC(C)Oc1cccc(NCc2cnc3ccccc3c2)c1 (stereo unspecified) | 41%
O=S(=O)(CC(F)(F)F)N(Cc1cncnc1)c1cccc(OC2CCCC2)c1 | 60%
O=S(=O)(CC(F)(F)F)N(Cc1cncnc1)c1cccc(Oc2ccccc2C(F)(F)F)c1 | 73%
Cc1ccccc1Oc1cccc(N(Cc2cncnc2)S(=O)(=O)CC(F)(F)F)c1 | 53%
O=C(OCc1cccc(N(Cc2cncnc2)S(=O)(=O)CC(F)(F)F)c1)c1ccccc1 | 39%
FC(F)(F)Oc1cccc(NCc2cncnc2)c1 | 26%

molecular target: Metabotropic glutamate receptor 3 (Homo sapiens) (UniProt Q14832); assay: Binding potency against Metabotropic glutamate receptor 3 was determined by measuring the concentration required to activate 50% of [35S]GTP-gamma-S, in presence of glutamate; inactive; type: functional
Sequence (Q14832 23-879 limits assumed): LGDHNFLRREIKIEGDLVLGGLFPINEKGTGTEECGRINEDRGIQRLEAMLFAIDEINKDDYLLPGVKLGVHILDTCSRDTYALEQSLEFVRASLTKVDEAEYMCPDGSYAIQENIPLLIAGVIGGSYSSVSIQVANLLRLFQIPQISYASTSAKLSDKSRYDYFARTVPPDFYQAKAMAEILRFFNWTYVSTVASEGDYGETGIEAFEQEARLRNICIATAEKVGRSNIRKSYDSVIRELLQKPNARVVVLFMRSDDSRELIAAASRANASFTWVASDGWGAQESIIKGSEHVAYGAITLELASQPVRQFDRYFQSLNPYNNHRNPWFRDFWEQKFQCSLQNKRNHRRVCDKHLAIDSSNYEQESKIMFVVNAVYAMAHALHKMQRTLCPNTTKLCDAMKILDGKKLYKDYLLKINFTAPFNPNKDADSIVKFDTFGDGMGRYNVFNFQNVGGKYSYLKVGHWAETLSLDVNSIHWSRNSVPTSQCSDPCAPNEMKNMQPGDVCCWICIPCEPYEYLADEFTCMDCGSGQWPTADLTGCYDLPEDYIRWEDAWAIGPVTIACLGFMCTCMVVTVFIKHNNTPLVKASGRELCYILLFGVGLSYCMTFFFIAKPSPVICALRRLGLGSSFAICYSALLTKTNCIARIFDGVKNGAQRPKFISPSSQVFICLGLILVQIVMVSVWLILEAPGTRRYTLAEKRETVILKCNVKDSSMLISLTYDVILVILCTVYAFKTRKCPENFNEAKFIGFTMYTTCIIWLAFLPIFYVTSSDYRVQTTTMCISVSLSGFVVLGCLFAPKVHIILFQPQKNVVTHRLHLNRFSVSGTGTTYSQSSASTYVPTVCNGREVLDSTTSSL

Concentration | SMILES
10 µM | CCCC(C)Oc1cccc(N(Cc2cncnc2)S(=O)(=O)CC(F)(F)F)c1 (stereo unspecified)
